The test system of one assay is N-mSMase ε. The assay can be described thus: N-mSMase activity assay: hydrolysis of [N-methyl-14C]sphingomyelin with added cations, reducing agents or surfactants. The format is biochemical, bovine. Particulars: for influence of reducing agents on N-mSMase ε activity: 0.5-10 mM; for influence of glutathione-like agents on N-mSMase ε activity: 1, 3, 5 or 10 mM. How it is done: (§1) After being dried with a nitrogen stream, [N-methyl-^14C]sphingomyelin (choline residue labeled with ^14C) was suspended in ethanol. 10 μl of a sample was mixed with 100 μl of a reaction solution (10 mM MgSO4, 50 μM [N-methyl-^14C]sphingomyelin (c.a. 60,000 cpm), 2 mM sodium deoxycholate, 100 mM Tris-HCl (pH 7.0)) and incubated at 37° C. for 30 min. Addition of 320 μl of a mixture of chloroform/methanol (1:1 volume ratio) and 30 μl of 2N hydrochloride stopped the reaction. After vortexing and centrifuging the resulting mixture at 10,000× g, 200 μl of the aqueous layer was mixed with 2.5 ml of a scintillation cocktail, such as that manufactured by Packard Instrument Co., U.S.A., identified as “Insta gel-XF”, followed by measuring the radioactivity with the aid of a Packard Tri-carb liquid β-scintillation counter.
In order to examine the dependency of N-mSMase ε activity on Mg^2+, Fraction B obtained in Step 6 of Example 1 was desalted by being applied to a PD-10 column (Sephadex G-25, Pharmacia Biotechnology Co., Sweden) For use, the column was equilibrated twice with distilled water, in advance. The desalted protein fraction (corresponding to protein 10 ng) was measured for N-mSMase ε activity in the presence of […] of MgCl2 in the manner described in Experimental Example 1.
An examination was made of the influence of other cations, such as Ca^2+, Fe^3+, Fe^2+, Zn^2+, Cu^2+ and […] on the activity of N-mSMase ε. To a solution containing the desalted protein fraction (corresponding to protein 10 ng) obtained in C and 5 mM MgCl2, CaCl2, FeCl3, FeCl2, ZnCl2 or CuCl2 was added to yield a final concentration of 0.01, 0.02, 0.05, 0.1, 0.25 or 0.5 mM, followed by the measurement of N-mSMase ε activity in accordance with the procedure of Experimental Example 1.
After the addition of 10 μl of [N-methyl-^14C]sphingomyelin, the N-mSMase activity was measured according to the procedure of Experimental Example 1. For comparison, a Tris-HCl buffer containing no reducing agents was used as a control. The N-mSMase ε activity influenced by the reducing agents was expressed as a percentage relative to the control.
After being treated with 1, 3, 5 or 10 mM of GSSG, cystein, cystein-glycine or γ-glutaric acid-cystein, the activity of N-mSMase ε was measured in the same manner.
Sodium deoxycholate and Triton X-100 were selected as surfactant5 to be tested. The protein fraction obtained in C (corresponding to 10 ng of protein) was measured for N-mSMase ε activity in reaction solutions containing 0.5, 1, 2 and 5 mM of sodium deoxycholate, respectively, in accordance with the procedure of Experimental Example 1. In the case of Triton X-100, it was prepared at concentrations of 0.05, 0.01, 0.5 and 0.1%.

In assay [1] the test system is partially purified N-mSMase from rat brain. Particulars: Liu et al., J. Biol. Chem. 273, 34472-34479; cited from earlier work.
Assay [2] is described as follows: Kinetic analysis (Lineweaver-Burk), substrate specificity and optimum pH of the purified enzyme. Particulars: 0.4, 1.0 and 2.0 mM sodium deoxycholate. The format is biochemical, bovine. The method, then:
as §1
The N-mSMase ε prepared in Step 6 of Example 1 was subjected to Lineweaver-Burk analysis. In this regard, enzyme N-mSMase ε was used at amounts of 10 ng or less with the substrate sphingomyelin varying, in concentration, from 6.25 to 100 μM.
Separately, the same Lineweaver-Burk analysis was carried out, but in the presence of 0.4, 1.0 and 2.0 mM sodium deoxycholate. […]

[3] abbreviates: desalted protein fraction (10 ng), 5 mM MgCl2, chloride salts 0.01-0.5 mM, read-out: IC50, inhibition of enzyme activity (hydrolysis of sphingomyelin) by cations.

Data on twelve molecules can be found in patent publication US20020137173A1, “Membrane-associated sphingomyelinase derived from bovine brain, isolation method therefor and anti-sphingomyelinase monoclonal anitibody” (priority 2001, published 2002).

“Also recorded” adds a separate entry of the source. Like-named read-outs stand apart in the source and are kept apart here.

Take `O[C@H](CS)[C@H](O)CS` (racemic) [DTT, dithiothreitol]: the “influence of reducing agents on N-mSMase ε activity” value with N-mSMase ε (preincubation 37° C. 10 min) is listed as “not inhibited”; in the assay on N-mSMase ε (preincubation 37° C. 10 min, listed as dithiothreitol) it was “neither dithiothreitol nor 2-mercaptoethanol has any influence”. For the same molecule, the “effect on the activity of partially purified rat brain N-mSMase” value in assay [1] was “promoted”.

As to `OCCS` [2-mercaptoethanol], in the assay on N-mSMase ε (preincubation 37° C. 10 min), the “influence of reducing agents on N-mSMase ε activity” value is recorded as “not inhibited; also recorded: neither dithiothreitol nor 2-mercaptoethanol has any influence”.

As to `[Ca+2].[Cl-].[Cl-]` [Ca^2+, CaCl2], the “influence on the activity of N-mSMase ε” value in the assay with N-mSMase ε (concentration of 0.5 mM or less, 5 mM MgCl2) is “no influence”.

Consider `[Cl][Cu][Cl]` [Cu^2+, CuCl2], for which the IC50 at N-mSMase ε (setting [3]) is 28 µM.

On to `[Cl-].[Cl-].[Mg+2]` [Mg^2+, MgCl2], for which the “dependency of N-mSMase ε activity on Mg2+” value with N-mSMase ε (1, 5, 10 and 25 mM MgCl2, desalted fraction B) is recorded as “Mg^2+-concentration dependent”.

As for `[Cl-].[Cl-].[Zn+2]` [Zn^2+, ZnCl2], the IC50 on N-mSMase ε (setting [3]) stood at 32 µM.

Regarding `N[C@@H](CS)C(=O)O` [cystein], the “influence of glutathione-like agents on N-mSMase ε activity” value (“influence of glutathione-like agents” below) with N-mSMase ε is “inhibited; also recorded: reduction in the activity”.

Regarding `N[C@@H](CCC(=O)N[C@@H](CS)C(=O)NCC(=O)O)C(=O)O` [glutathione], the “activity of N-mSMase ε at 10 mM glutathione” value in the assay on N-mSMase ε (glutathione 10 mM) was “fully inhibited; also recorded: completely inhibited”. Besides, in the assay with N-mSMase ε (glutathione up to 3 mM), the “activity of N-mSMase ε with increasing glutathione concentration up to 3 mM” value is listed as “increases”. For the same molecule, at N-mSMase ε (read-out: IC50, inhibition of sphingomyelinase activity by glutathione, glutathione above 3 mM, preincubation 37° C. 10 min, Tris-HCl pH 7.5), the half-inhibitory concentration (IC50) was 8000 µM.

With `N[C@@H](CCC(=O)N[C@@H](CS)C(=O)O)C(=O)O` [γ-glutaric acid-cystein], the “influence of glutathione-like agents” value in the assay with N-mSMase ε was “inhibited; also recorded: reduction in the activity”.

As to oxidized glutathione [GSSG], the “influence of glutathione-like agents” value in the assay with N-mSMase ε is “inhibited; also recorded: reduction in the activity”.

Regarding phosphatidylserine, the “effect on the activity of partially purified rat brain N-mSMase” value in assay [1] is listed as “promoted”.

For the molecule sodium deoxycholate, the “effect on the Km value of N-mSMase ε” value in assay [2] is reported as “could not change”.

The IC50 is the concentration at which inhibition is half-maximal.
